Experimental data reported in patent US7319101B2, “COMT inhibitors for the treatment of depression and impaired cognition” (Hoffmann-La Roche Inc., priority 2003, dated 2008).

System: not given
Assay: not given
Details: not given

In the case of Nc1ncnc2c1ncn2[C@@H]1O[C@H](/C=C/CNC(=O)c2cc(Br)cc(O)c2O)C(O)C1O (stereo in doubt) [Example 2, N1-{(E)-3-[(3aR,4R,6R,6aR)-5-(6-amino-9H-purin-9-yl)-3,4-dihydroxytetrahydrofuran-2-yl]prop-2-enyl}-5-bromo-2,3-dihydroxy-benzamide], the melting point is reported as 123 °C (dec.).
In the case of Nc1ncnc2c1ncn2[C@@H]1O[C@H](/C=C/CNC(=O)c2cccc(O)c2O)C(O)C1O (stereo in doubt) [Example 1, N1-{(E)-3-[(3aR,4R,6R,6aR)-5-(6-amino-9H-purin-9-yl)-3,4-dihydroxytetrahydrofuran-2-yl]prop-2-enyl}-2,3-dihydroxy-benzamide], the melting point is reported as 134 °C (dec.).
With Nc1ncnc2c1ncn2[C@@H]1O[C@H](/C=C/CNC(=O)c2cc(-c3ccncc3)cc(O)c2O)C(O)C1O (stereo in doubt) [Example 12, N1-{(E)-3-[(3aR,4R,6R,6aR)-5-(6-amino-9H-purin-9-yl)-3,4-dihydroxytetrahydrofuran-2-yl]prop-2-enyl}-5-pyridin-4-yl-2,3-dihydroxy-benzamide] the melting point was 133 to 137 °C (dec.).

Biological target: T1, catechol-O-methyltransferase (COMT) obtained from rat liver (Rattus norvegicus, UniProt P22734)
T1 construct: from tissue; host or cells: rat liver homogenate
T1 sequence (P22734 1-264): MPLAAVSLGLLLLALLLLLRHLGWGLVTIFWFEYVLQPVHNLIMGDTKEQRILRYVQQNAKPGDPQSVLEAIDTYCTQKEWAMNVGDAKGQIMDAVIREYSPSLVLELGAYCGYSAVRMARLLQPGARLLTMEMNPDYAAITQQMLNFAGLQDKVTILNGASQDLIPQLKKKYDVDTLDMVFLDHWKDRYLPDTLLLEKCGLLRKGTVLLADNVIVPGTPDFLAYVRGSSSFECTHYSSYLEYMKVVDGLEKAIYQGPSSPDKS
Assay: COMT inhibition, radiochemical assay with rat liver homogenate (Zürcher et al.)
Type: biochemical
Details: rat liver tissue extract; substrate benzene-1,2-diol 2.5 mM, [3H]SAM 183 μM; 15 min preincubation at 37° C., pH 7.6
Protocol: The inhibitory activity can be determined in vitro with COMT obtained from rat liver. Rat liver homogenate is incubated in the presence of a suitable substrate as described by Zürcher et al. in J. Neurochem. 1982, 38, 191-195 and the COMT activity is measured.
IC50 values were determined as follows: The inhibitors were dissolved in Me2SO as 1.2 mM stock solution and further diluted with Me2SO. The reactions were performed in standard polypropylene vials. 25 μl of the inhibitor in varying concentrations from 10^−4 to 10^−9 mol L^−1 were mixed with 215 μl freshly prepared buffer-substrate mixture consisting of 170 μl potassium phosphate buffer (0.1 mol L^−1, pH 7.6), 10 μl MgCl2, (0.1 mol L^−1), 10 μl dithiothreitol (0.065 mol L^−1) and 25 μl of tissue extract. The enzyme preparations were preincubated for 15 min at 37° C. The reaction was started by adding 30 μl substrate (benzene-1,2-diol, 0.025 mol L^−1), 10 μl [^3H]SAM (5.5 mmol L^−1, specific activity: 13.36 Bq mol^−1 (3.61 Cimol^−1) and 20 μl deionized H2O, reaching a final substrate concentration of 2.5 mM and a final [^1H]/[^3H]SAM concentration of 183 μM. The reaction was stopped after incubating the vials in a water-bath at 37° C. for 15 min by addition of 200 μl HOAc (5.7%) containing guaiacol (0.1 g L^−1). The reaction vessels were transferred into polyethylene scintillation vials and 3 ml of scintillation fluid (5 g butyl-PBD, dissolved in 200 ml toluene, made up to 1 L with n-hexane) was added.
The samples were counted in a Beckmann LS 6000 TA scintillation counter.

Compared with Nc1ncnc2c1ncn2[C@@H]1O[C@H](/C=C/CNC(=O)c2cc(Br)cc(O)c2O)C(O)C1O (stereo in doubt) [Example 2, N1-{(E)-3-[(3aR,4R,6R,6aR)-5-(6-amino-9H-purin-9-yl)-3,4-dihydroxytetrahydrofuran-2-yl]prop-2-enyl}-5-bromo-2,3-dihydroxy-benzamide], Nc1ncnc2c1ncn2[C@@H]1O[C@H](/C=C/CNC(=O)c2cc(Cl)cc(O)c2O)C(O)C1O (stereo in doubt) [Example 7, N1-{(E)-3-[(3aR,4R,6R,6aR)-5-(6-amino-9H-purin-9-yl)-3,4-dihydroxytetrahydrofuran-2-yl]prop-2-enyl}-5-chloro-2,3-dihydroxy-benzamide] is 1.6-fold higher in IC50: 28 nM for the first, 44 nM for the second.

First: Nc1ncnc2c1ncn2C1OC(C=CCNC(=O)c2cc([N+](=O)[O-])cc(O)c2O)C(O)C1O (stereo not drawn) [comparative example, N-{3-[5-(6-Amino-purin-9-yl)-3,4-dihydroxy-tetrahydro-furan-2-yl]-allyl}-2,3-dihydroxy-5-nitro-benzamide, reference compound]
Second: N#Cc1cc(O)c(O)c(C(=O)NC/C=C/[C@H]2O[C@@H](n3cnc4c(N)ncnc43)C(O)C2O)c1 (stereo in doubt) [Example 3, N1-{(E)-3-[(3aR,4R,6R,6aR)-5-(6-amino-9H-purin-9-yl)-3,4-dihydroxytetrahydrofuran-2-yl]prop-2-enyl}-5-cyano-2,3-dihydroxy-benzamide]
The IC50 of the first is 3.2-fold lower: 9 nM for the first, 29 nM for the second. The first is the more potent here.

Nc1ncnc2c1ncn2[C@@H]1O[C@H](/C=C/CNC(=O)c2cc(C(=O)C(F)(F)F)cc(O)c2O)C(O)C1O (stereo in doubt) [Example 4, N1-{(E)-3-[(3aR,4R,6R,6aR)-5-(6-amino-9H-purin-9-yl)-3,4-dihydroxytetrahydrofuran-2-yl]prop-2-enyl}-5-(2,2,2-trifluoro-acetyl)-2,3-dihydroxy-benzamide] and Nc1ncnc2c1ncn2[C@@H]1O[C@H](/C=C/CNC(=O)c2cc(C(F)(F)F)cc(O)c2O)C(O)C1O (stereo in doubt) [Example 16, N1-{(E)-3-[(3aR,4R,6R,6aR)-5-(6-amino-9H-purin-9-yl)-3,4-dihydroxytetrahydrofuran-2-yl]prop-2-enyl}-5-trifluoromethyl-2,3-dihydroxy-benzamide] are within 1.5-fold of each other in IC50: 39 nM for the first, 35 nM for the second.

First: Cc1ccc(S(=O)(=O)c2cc(O)c(O)c(C(=O)NC/C=C/[C@H]3O[C@@H](n4cnc5c(N)ncnc54)C(O)C3O)c2)cc1 (stereo in doubt) [Example 18, N1-{(E)-3-[(3aR,4R,6R,6aR)-5-(6-amino-9H-purin-9-yl)-3,4-dihydroxytetrahydrofuran-2-yl]prop-2-enyl}-5-(toluene-4-sulfonyl)-2,3-dihydroxy-benzamide]
Second: Cc1ccc(-c2cc(O)c(O)c(C(=O)NC/C=C/[C@H]3O[C@@H](n4cnc5c(N)ncnc54)C(O)C3O)c2)cc1 (stereo in doubt) [Example 9, N1-{(E)-3-[(3aR,4R,6R,6aR)-5-(6-amino-9H-purin-9-yl)-3,4-dihydroxytetrahydrofuran-2-yl]prop-2-enyl}-5-p-tolyl-2,3-dihydroxy-benzamide]
The IC50 of the first is 9.3-fold higher: 213 nM for the first, 23 nM for the second.

Nc1ncnc2c1ncn2[C@@H]1O[C@H](/C=C/CNC(=O)c2cc(C(=O)c3ccncc3)cc(O)c2O)C(O)C1O (stereo in doubt) [Example 5, N1-{(E)-3-[(3aR,4R,6R,6aR)-5-(6-amino-9H-purin-9-yl)-3,4-dihydroxytetrahydrofuran-2-yl]prop-2-enyl}-5-(pyridine-4-carbonyl)-2,3-dihydroxy-benzamide] and Cc1ccc(C(=O)c2cc(O)c(O)c(C(=O)NC/C=C/[C@H]3O[C@@H](n4cnc5c(N)ncnc54)C(O)C3O)c2)cc1 (stereo in doubt) [Example 19, N1-{(E)-3-[(3aR,4R,6R,6aR)-5-(6-amino-9H-purin-9-yl)-3,4-dihydroxy-tetrahydrofuran-2-yl]prop-2-enyl}-5-(4-methyl-benzoyl)-2,3-dihydroxy-benzamide] are within 1.5-fold of each other in IC50: 42 nM for the first, 34 nM for the second.

Nc1ncnc2c1ncn2[C@@H]1O[C@H](/C=C/CNC(=O)c2cccc(O)c2O)C(O)C1O (stereo in doubt) [Example 1, N1-{(E)-3-[(3aR,4R,6R,6aR)-5-(6-amino-9H-purin-9-yl)-3,4-dihydroxytetrahydrofuran-2-yl]prop-2-enyl}-2,3-dihydroxy-benzamide] and CN(C)C(=O)c1cc(O)c(O)c(C(=O)NC/C=C/[C@H]2O[C@@H](n3cnc4c(N)ncnc43)C(O)C2O)c1 (stereo in doubt) [Example 14, N1-{(E)-3-[(3aR,4R,6R,6aR)-5-(6-amino-9H-purin-9-yl)-3,4-dihydroxytetrahydrofuran-2-yl]prop-2-enyl}-5-dimethylcarbamoyl-2,3-dihydroxy-benzamide] are within 1.5-fold of each other in IC50: 2600 nM for the first, 2000 nM for the second.

Compared with Cc1ccc(Cc2cc(O)c(O)c(C(=O)NC/C=C/[C@H]3O[C@@H](n4cnc5c(N)ncnc54)C(O)C3O)c2)cc1 (stereo in doubt) [Example 13, N1-{(E)-3-[(3aR,4R,6R,6aR)-5-(6-amino-9H-purin-9-yl)-3,4-dihydroxytetrahydrofuran-2-yl]prop-2-enyl}-5-(4-methyl-benzyl)-2,3-dihydroxy-benzamide], Nc1ncnc2c1ncn2[C@@H]1O[C@H](/C=C/CNC(=O)c2cc(-c3ccc(F)cc3)cc(O)c2O)C(O)C1O (stereo in doubt) [Example 8, N1-{(E)-3-[(3aR,4R,6R,6aR)-5-(6-amino-9H-purin-9-yl)-3,4-dihydroxytetrahydrofuran-2-yl]prop-2-enyl}-5-(4-fluoro-phenyl)-2,3-dihydroxy-benzamide] is 29-fold lower in IC50: 608 nM for the first, 21 nM for the second. The second is the more potent here.

Nc1ncnc2c1ncn2[C@@H]1O[C@H](/C=C/CNC(=O)c2cc(-c3ccncc3)cc(O)c2O)C(O)C1O (stereo in doubt) [Example 12, N1-{(E)-3-[(3aR,4R,6R,6aR)-5-(6-amino-9H-purin-9-yl)-3,4-dihydroxytetrahydrofuran-2-yl]prop-2-enyl}-5-pyridin-4-yl-2,3-dihydroxy-benzamide] and Nc1ncnc2c1ncn2[C@@H]1O[C@H](/C=C/CNC(=O)c2cc(-c3nccs3)cc(O)c2O)C(O)C1O (stereo in doubt) [Example 10, N1-{(E)-3-[(3aR,4R,6R,6aR)-5-(6-amino-9H-purin-9-yl)-3,4-dihydroxytetrahydrofuran-2-yl]prop-2-enyl}-5-thiazol-2-yl-2,3-dihydroxy-benzamide] are within 1.5-fold of each other in IC50: 23 nM for the first, 27 nM for the second.

Nc1ncnc2c1ncn2[C@@H]1O[C@H](/C=C/CNC(=O)c2cc(C(=O)C3CCCCC3)cc(O)c2O)C(O)C1O (stereo in doubt) [Example 6, N1-{(E)-3-[(3aR,4R,6R,6aR)-5-(6-amino-9H-purin-9-yl)-3,4-dihydroxytetrahydrofuran-2-yl]prop-2-enyl}-5-cyclohexanecarbonyl-2,3-dihydroxy-benzamide] and CN(C)C(=O)/C=C/c1cc(O)c(O)c(C(=O)NC/C=C/[C@H]2O[C@@H](n3cnc4c(N)ncnc43)C(O)C2O)c1 (stereo in doubt) [Example 15, N1-{(E)-3-[(3aR,4R,6R,6aR)-5-(6-amino-9H-purin-9-yl)-3,4-dihydroxytetrahydrofuran-2-yl]prop-2-enyl}-5-((E)-2-dimethylcarbamoyl-vinyl)-2,3-dihydroxy-benzamide] are within 1.5-fold of each other in IC50: 83 nM for the first, 97 nM for the second.
